# Measurements taken from patent US20040067547A1, “Rapid method for detecting micro-organisms and evaluating antimicrobial activity” (priority 1998, published 2004).
# System: Streptococcus pneumoniae
# Assay: Antibiotic sensitivity testing by zeta potential measurement (ZETASIZER 2000)
# Assay type: cell-based
# Settings: about 10^5 cells in growth medium with penicillin at 0.01 g/ml, incubated at 37° C. for 3 h; about 0 mV = dead cells, untreated −27.9 mV
# Description: The following Example illustrates a particular embodiment of the invention: Streptococcus pneumoniae was grown for about 4 h in laked horse blood medium. Aliqouts, representing about 10^5 cells, were transferred to two tubes containing growth medium: one of these also contained penicillin at 0.01 g/ml. The zeta potential of both samples was measured using a ZETASIZER 2000 (RTM) from Malvern Instruments. The tubes were incubated at 37° C. for 3 h, and the zeta potential of each measured again. […] There is a clear difference in these profiles. In both Figures, the peak at 0 mV represents dead cells. The zeta potential of all dead micro-organisms is close to 0 mV: without wishing to be bound by a particular theory, it is believed that these changes are brought about by the vacuolation of the cells, resulting in the zeta potential decaying to about 0 mv. The other peak in FIG. 4 is believed also to be cells of S pneumoniae, but which are […].
substance,measurement,value
penicillin,Mean Zeta Potential for S pneumoniae,−0.3 mV
